From patent publication US9321758B2, “Amorphous salt of a macrocyclic inhibitor of HCV” (Janssen Pharmaceuticals, Inc., priority 2009, dated 2016)

Columns and labels:
[1] = Clinical investigations, tolerability in patients; format: in vivo
Water solubility = format: physicochemical
[2] = Adsorption-Desorption (DVS), dynamic vapor sorption; format: physicochemical; conditions: for water adsorbed: at high relative humidity
Protocol: Amorphous TMC435 (19 mg) was transferred into a SMS (Surface Measurement Systems Ltd.) dynamic vapor sorption model DVS-1 and the weight change was recorded with respect to the atmospheric humidity at 25° C.

[3] = Long-term storage stability of the amorphous form by powder XRD; format: physicochemical; conditions: stored during 1 year, 8 months and 23 days
Protocol: This means that the amorphous Na salt of TMC435 allows stable storage during a normal shelf life period. X-ray powder diffraction (XRPD) analysis was carried out on a Philips X′PertPRO MPD diffractometer PW3050/60 with generator PW3040. The instrument was equipped with a Cu LFF X-ray tube PW3373/10. The compound was spread on a zero background sample holder.

| water solubility (Water solubility) | moisture remaining on the product during the desorption cycle ([2]; DVS desorption cycle, 25° C.) | weight loss during the initial drying step ([2]; DVS, drying 60 min under dry nitrogen, 25° C.) | water adsorbed ([2]; 25° C.) | water adsorbed ([2]; 25° C., listed as sodium salt of compound I) | stability when water is absorbed ([2]; brought into contact with humidity) | hygroscopicity ([2]; listed as Amorphous Sodium Salt Prepared According to Example 1) | hygroscopicity ([2]; listed as sodium salt of compound I) | solid form after DVS (IR and XRD) ([2]; product obtained after DVS) | powder XRD pattern after storage compared with pattern shortly after preparation [3] | SMILES | tolerability in patients [1] |
| --- | --- | --- | --- | --- | --- | --- | --- | --- | --- | --- | --- |
| poorly water-soluble |  |  |  |  |  |  |  |  |  | COc1ccc2c(O[C@@H]3C[C@H]4C(=O)N[C@]5(C(=O)NS(=O)(=O)C6CC6)C[C@H]5/C=C\CCCCN(C)C(=O)[C@@H]4C3)cc(-c3nc(C(C)C)cs3)nc2c1C [TMC435, (1R,4R,6S,15R,17R)-cis-N-[17-[2-(4-isopropylthiazol-2-yl)-7-methoxy-8-methyl-quinolin-4-yloxy]-13-methyl-2,14-dioxo-3,13-diazatricyclo[13.3.0.0^4,6]octadec-7-ene-4-carbonyl] (cyclopropyl)sulfonamide] | well-tolerated |
|  | 1.61% | 2.03% | up to 13% | up to 13.1% | remains stable | Hygroscopic | hygroscopic | remained amorphous | remained essentially unchanged | COc1ccc2c(O[C@@H]3C[C@H]4C(=O)N[C@]5(C(=O)[N-]S(=O)(=O)C6CC6)C[C@H]5/C=C\CCCCN(C)C(=O)[C@@H]4C3)cc(-c3nc(C(C)C)cs3)nc2c1C.[Na+] [amorphous sodium salt of TMC435] |  |
